Measured values taken from ChEMBL document CHEMBL2150995, “Identification of an Adamantyl Azaquinolone JNK Selective Inhibitor” (ACS Med Chem Lett, 2012).
Converted amounts (≈) assume the structure as drawn.

What was measured:
[1] = Solubility of the compound in acetonitrile/water at pH 6.5 by lyophilization solubility assay; type: physicochemical
[2] = target: T1, Mitogen-activated protein kinase 8 (Homo sapiens, UniProt P45983); experiment: Inhibition of JNK1 after 30 mins by TR-FRET assay
[3] = target: T1, Mitogen-activated protein kinase 8; experiment: Inhibition of JNK1-mediated c-jun phosphorylation in TNF-alpha stimulated human HK-2 cells after 30 mins by TR-FRET assay; type: cell-based
[4] = Clearance in mouse hepatocytes; type: ADME, cell-based, Liver, Hepatocyte
[5] = Clearance in mouse liver microsomes; type: ADME, Microsome
[6] = Plasma concentration in C57 mouse at 30 mg/kg, po measured at 8 hrs; type: ADME, organism-based; parameters: dose 30 mg/kg, route oral
[7] = Drug uptake in C57 mouse liver at 30 mg/kg, po measured at 8 hrs; type: ADME, organism-based; parameters: dose 30 mg/kg, route oral; settings: read-out: Drug uptake
[8] = Mean residence time in C57 mouse at 30 mg/kg, po; type: ADME, organism-based; parameters: dose 30 mg/kg, route oral; settings: in vivo
[9] = Drug uptake in C57 mouse kidney at 30 mg/kg, po measured at 8 hrs; type: ADME, organism-based; parameters: dose 30 mg/kg, route oral; settings: read-out: Drug uptake
[10] = Tmax in C57 mouse at 30 mg/kg, po; type: ADME, organism-based; parameters: dose 30 mg/kg, route oral; settings: in vivo

T1 sequence (P45983 whole entry): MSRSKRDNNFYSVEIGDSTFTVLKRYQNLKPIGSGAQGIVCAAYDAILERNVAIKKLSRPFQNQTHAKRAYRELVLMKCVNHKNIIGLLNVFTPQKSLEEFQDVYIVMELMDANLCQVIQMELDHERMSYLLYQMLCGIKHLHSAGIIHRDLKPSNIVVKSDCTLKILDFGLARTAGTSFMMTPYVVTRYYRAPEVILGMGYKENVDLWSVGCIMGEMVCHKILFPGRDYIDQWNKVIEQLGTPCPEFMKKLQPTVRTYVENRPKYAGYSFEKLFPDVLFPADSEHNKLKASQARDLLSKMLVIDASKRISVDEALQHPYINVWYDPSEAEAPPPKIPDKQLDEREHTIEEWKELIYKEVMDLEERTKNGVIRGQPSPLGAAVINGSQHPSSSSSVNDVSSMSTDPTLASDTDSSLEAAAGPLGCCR

| Structure (SMILES) | solubility [1] [µg/mL] | IC50 [2] [µM] | EC50 [3] [µM] | CLhep predicted [4] [mL/min/kg] | CLhep predicted [5] [mL/min/kg] | concentration at 8 h [6] [nM] | concentration at 8 h [7] [nM] | MRT [8] [min] | concentration at 8 h [9] [nM] | Tmax [10] [min] |
| --- | --- | --- | --- | --- | --- | --- | --- | --- | --- | --- |
| COC(=O)c1c(Cc2ccc(C(=O)NCCO)cc2)c(=O)c2ccc(Cl)cc2n1-c1ccccc1 | 4.6 (≈ 9.37 µM) | 0.044 | 10.1 | 31.7 | 67 | – | – | – | – | – |
| COC(=O)c1c(Cc2ccc(C(=O)N[C@H](CO)C(C)(C)C)cc2)c(=O)c2cccnc2n1-c1ccccc1 | – | – | – | – | – | 20 | 230 | 85.2 | 30 | 15 |
| COC(=O)c1c(Cc2ccc(C(=O)NCC(C)(C)O)cc2)c(=O)c2cccnc2n1-c1ccccc1 | – | – | – | – | – | 740 | 4000 | 188 | 1420 | 15 |
| COC(=O)c1c(Cc2ccc(C(=O)N[C@@H]3[C@@H]4C[C@@H]5C[C@H]3C[C@@](N)(C5)C4)cc2)c(=O)c2cccnc2n1-c1ccccc1 | 21.9 (≈ 38.9 µM) | – | – | – | – | – | – | – | – | – |
